The values that follow come from patent publication US20060121499A1, “Methods of identifying glucocorticoids without the detrimental side effects of bone loss” (priority 2004, published 2006).

Starred links: 1 amine or outer side, 2 acyl side, 3 side chain; linkers in the order of their positions; H or OH if unused. Positions of bridges follow the written chain, without caps; N, C: chain ends. Non-standard residues stand in square brackets, D forms with d. Residues, ends and D or L forms follow the SMILES beside them. Chains are numbered I, II in the order given. No end group written: not given here. Actinocin(9to1) = Cc1c2oc3c(C)ccc(C(=O)[*:1])c3nc-2c(C(=O)[*:2])c(N)c1=O; NMeV = CN[C@H](C(=O)O)C(C)C; Sar = CNCC(=O)O

Assay [1] relates to MLO-Y4 osteocytic cells. Kind of assay: Quantification of apoptotic cells (nuclear morphology, nGFP) in MLO-Y4 osteocytic cells. The class given is cell-based, murine. Particulars: for effect on dexamethasone (glucocorticoid)-induced apoptosis: inhibitor added 30 minute before dexamethasone 10^−6 M, 6 hour treatment. The method, then: The murine long bone-derived osteocytic cell line MLO-Y4 was kindly provided by Dr. Lynda Bonewald (University of Missouri-Kansas City, Kansas City, Mo.). Cells were cultured in phenol red-free AMEM supplemented with 2.5% FBS, 2.5% bovine calf serum, 100 U/ml penicillin and 100 μg/ml streptomycin. Cells were plated at 1-2×10^4 cells/cm^2 on collagen type I (Sigma Chemical Co., St. Louis, Mo.) coated plates, as described previously (Kato,Y. et al., J. Bone Min.Res., 12:2014-2023 (1997)).
MLO-Y4 cells stably expressing nuclear green fluorescent protein (nGFP) were obtained using the retroviral vector containing the nGFP, provided by Dr. Charles O'Brien (University of Arkansas for Medical Sciences, Little Rock, Ark.). The SV40 large T antigen nuclear localization sequence (Kalderon,D., et al., Cell, 39:499-509 (1984)) was attached to the carboxy-terminus of the cDNA construct encoding nGFP and subcloned into the pLXSN retroviral vector (Clontech, Palo Alto, Calif.). The plasmid harboring the retroviral construct was transiently transfected into the packaging cell line Phoenix Eco (Grignani, F. et al., Cancer Res. 58:14-19 (1998)) using SuperFect (Qiagen, Santa Clarita, Calif.). Supernatants containing retroviral particles were collected 24-48 h after transfection, and used immediately to infect cell cultures. Subconfluent MLO-Y4 osteocytic cells were exposed to viral supernatants in the presence of 8 μg/ml polybrene for 8 h and then incubated in fresh culture medium for 16 hours. Subsequently, cells were exposed to the supernatants containing the viral particles once more before being trypsinized and plated at low density. Transduced cells were selected by culturing them in the presence of 400 μg/ml of geneticin (G418, Sigma Chemical Co., St. Louis, Mo.) for three weeks (Plotkin,L. I., et al., J. Clin. Invest. 104:1363-1374 (1999)).
Apoptosis was induced in semiconfluent cultures by treatment for the indicated times with the glucocorticoid, dexamethasone (10^−6 M, Sigma Chemical Co., St. Louis, Mo.) or with etoposide (50 μM, Sigma Chemical Co., St. Louis, Mo.). Inhibitors were added 30 minute before the addition of the pro-apoptotic agent at the following concentrations: the RNA synthesis inhibitor actinomycin D (2×10^−6M, Sigma Chemical Co., St. Louis, Mo.), the protein synthesis inhibitor cycloheximide (10^−6 M, Sigma Chemical Co., St. Louis, Mo.), the MEK inhibitor PD98059 (50 μM, New England Biolabs, Beverly, Mass.), the Src inhibitor PP1 (5 μM, BioSource International, Camarillo, Calif.), the p38 inhibitor SB203580 (10^−4 M, Sigma Chemical Co., St. Louis, Mo.), the P13K inhibitor wortmannin (30 nM, Sigma Chemical Co., St. Louis, Mo.), the JNK inhibitor SP600125 (3 μM, EMD Biosciences, Inc, San Diego, Calif.) or the caspase-3 inhibitor Asp-Glu-Val-Asp-aldehide (DEVD-CHO) (50 nM, Biomol Research Lab., Inc., Plymouth Meeting, Pa.).
Following the treatment with the pro-apoptotic agents, cells were fixed for 8 minutes with neutral buffer formalin and stored at 4° C. until analyzed.
Cells were transiently transfected using Lipofectamine Plus (Gibco BRL, Gaithersburg, Md.) as previously described (Plotkin,L. I. et. al., J. Biol.Chem. 277:8648-8657 (2002) and Kousteni, S. et al., Cell, 104:719-730 (2001)). Briefly, cells were cultured in the absence of serum or antibiotics for 3 hours in the presence of 20 μl/ml Plus reagent and 10 μl/ml Lipofectamine together with […] of each of the following DNA constructs: pCDNA3 vector (obtained from Clontech, Palo Alto, Calif.), wild type FAK (provided by Dr. Sandro Aruffo, Bristol-Myers Squibb Pharmaceutical Research Institute, Princeton, N.J. (Chan,P. Y. et al., Methods Mol Biol. 2000.;99.(1.):109.-25. 269:20567-20574 (1994)), or wild type Pyk2, kinase deficient Pyk2 mutant or autophosphorylation deficient Pyk2 mutant (provided by Dr. Wen-Cheng Xiong, University of Alabama at Birmingham, Birmingham, Ala. (Xiong,W. and Parsons,J. T., J Cell Biol 139:529-53(1997)).

Assay [2] concerns MLO-Y4 osteocytic cells. Put plainly: Quantification of cell detachment (number of cytoplasmic processes) in MLO-Y4 cells. The class given is cell-based, murine. As to the method:
Apoptosis was induced in semiconfluent cultures by treatment for the indicated times with the glucocorticoid, dexamethasone (10^−6 M, Sigma Chemical Co., St. Louis, Mo.) or with etoposide (50 μM, Sigma Chemical Co., St. Louis, Mo.). […]
The effect of dexamethasone or etoposide on cell detachment was quantified by enumerating the number of cytoplasmic processes of MLO-Y4 cells expressing GFP. […]
Apoptosis and cell attachment were determined in the same cultures by examining nuclear morphology (FIG. 2A) and quantifying the number of cytoplasmic processes (FIG. 2B), respectively. Apoptosis was determined by examining nuclear fragmentation and chromatin condensation and cell detachment by quantifying the number of cytoplasmic processes in the same cells. […]

Turning to `CC(=O)OCOC(=O)CN(CC(=O)OCOC(C)=O)c1ccccc1OCCOc1ccccc1N(CC(=O)OCOC(C)=O)CC(=O)OCOC(C)=O` [BAPTA-AM], the “effect on dexamethasone (glucocorticoid)-induced apoptosis” value with MLO-Y4 osteocytic cells [1] is reported as “abolished”. Same read-out and setting: the entry for `Cc1c2oc3c(C)ccc(C(=O)N[C@@H]4C(=O)N[C@H](C(C)C)C(=O)N5CCC[C@H]5C(=O)N(C)CC(=O)N(C)[C@@H](C(C)C)C(=O)O[C@@H]4C)c3nc-2c(C(=O)N[C@@H]2C(=O)N[C@H](C(C)C)C(=O)N3CCC[C@H]3C(=O)N(C)CC(=O)N(C)[C@@H](C(C)C)C(=O)O[C@@H]2C)c(N)c1=O` [actinomycin D] (I: T[dV]P[Sar][NMeV] / II: T[dV]P[Sar][NMeV]; ester I:1-I:C, II:1-II:C; linker I:N-II:N via Actinocin(9to1)) is “dexamethasone was able to induce apoptosis”; for `C[C@@H]1C[C@@H]([C@H](O)CC2CC(=O)NC(=O)C2)C(=O)[C@@H](C)C1` [cycloheximide] it is “dexamethasone was able to induce apoptosis”. `COc1cc([C@@H]2c3cc4c(cc3[C@@H](O[C@@H]3O[C@@H]5CO[C@@H](C)O[C@H]5[C@H](O)[C@H]3O)[C@H]3COC(=O)[C@H]23)OCO4)cc(OC)c1O` [etoposide]: in the assay with MLO-Y4 osteocytic cells [2] (dexamethasone: as early as after 1 h, etoposide: duration of the experiment), the “number of cells exhibiting three or less cytoplasmic processes (cell attachment)” value is recorded as “did not exhibit changes in cell attachment”. Moreover, the “apoptosis (nuclear fragmentation and chromatin condensation)” value in the assay with MLO-Y4 osteocytic cells [1] (6 hours of treatment, dexamethasone 10^−6 M, etoposide 50 μM) is listed as “induced apoptosis”. Further, the “apoptosis in cells overexpressing FAK” value in the assay on MLO-Y4 osteocytic cells [1] (transient transfection wild type FAK, 6 hours) is given as “not protected”. Moreover, the “apoptosis in cells overexpressing Pyk2” value with MLO-Y4 osteocytic cells [1] (transient transfection wild type Pyk2, 6 hours) is “remained responsive”. Moreover, the “apoptosis in cells transfected with wild type Pyk2 vector” value in the assay with MLO-Y4 osteocytic cells [1] (transient transfection, co-transfected nGFP, 6 hours) was “exhibited apoptosis”. `[Gd]` [gadolinium]: the “effect on dexamethasone (glucocorticoid)-induced apoptosis” value in the assay with MLO-Y4 osteocytic cells [1] is reported as “abolished”.

Consider `C/C=C(/C)C(=O)O[C@H]1C(C)=C2[C@H]([C@@H]1OC(=O)CCCCCCC)[C@@](C)(OC(C)=O)C[C@H](OC(=O)CCC)[C@@]1(O)[C@H]2OC(=O)[C@@]1(C)O` [thapsigargin], for which the “effect on dexamethasone (glucocorticoid)-induced apoptosis” value in the assay with MLO-Y4 osteocytic cells [1] is listed as “had no effect”.

As to “Asp-Glu-Val-Asp-aldehide (DEVD-aldehyde)”, in the assay on MLO-Y4 osteocytic cells [2] (inhibitor added 30 minute before dexamethasone 10^−6 M), the “effect on dexamethasone-induced changes in cell attachment” value is listed as “did not reverse”. For the same compound, the “effect on dexamethasone (glucocorticoid)-induced apoptosis” value in the assay on MLO-Y4 osteocytic cells [1] is “abolished”.
